Patent US10695436B2, “Non-cleavable polymer conjugated with alpha V beta 3 integrin thyroid antagonists” (NANOPHARMACEUTICALS, LLC, priority 2016, dated 2020)

Legend:
[1] = test system: U87MG glioblastoma xenografts; assay: U87MG-luc glioblastoma subcutaneous xenografts in the nude mouse; assay type: in vivo
Experimental: The xenograft model of glioblastoma is a standard model for study of GBM. In the current studies, athymic, immunodeficient NCr nude mice aged 5-6 weeks and weighing 18-20 g were used. Animals were provided with ad libitum access to water and food. Animals allowed to acclimatize to the facility for 5 days prior to study. Cultured U87MG-luc cells were harvested and implanted subcutaneously (s.c.) in each flank (5×10^6 cells in 100 uL volumes containing 50% Matrigel) Tumors were grown for 2 days (to an initial volume of 150-250 mm^3) before administration of the control, C-DAT 1320, C-TAT 1330, P-TAT 730, P-bi-DAT 1020, P-bi-TAT 1030. Immediately before initiation of treatment at 2 days after implantation, animals were divided into control and treatment groups containing similar distributions of tumor volumes (calipers measurement). Polymer conjugated P-DAT 720 and P-TAT 730 (3 mg or 10 mg/kg body weight) was administered daily s.c. to two groups of animals×21 days, and vehicle (PBS, pH 8.0/0.5% ethanol) was administered daily s.c. to one group of animals as control×21 days. There were 4 animals and 8 grafts/treatment group. The control group and one group of drug-treated animals humanely sacrificed at 21 days; the second group of drug-treated mice observed off therapy for an additional 22 days to detect any tumor re-growth. The second drug-treated group thus observed for a total of 43 days. Tumors harvested and weighed, then fixed, sliced and subjected to hematoxylin and eosin (H&E) staining. Microscopic slides accommodated the full diameter of the control tumors. […]
Histologic evaluation of paraffin-embedded tissue sections were stained (hematoxylin and eosin), and each section was coded. The area of the section measured with a stage micrometer, and the percentage of viable vs. necrotic tumor, manifested by loss of cell density, dissolution of the plasma membrane and loss of nuclear structure estimated visually. The number of mitoses and apoptotic cells per high power field was counted for 5 fields of viable tumor areas and averaged per tissue section. […]

[2] = test system: orthotropic brain GBM tumor and subcutaneous GBM xenografts; assay: Kinetics of Cy5 labeled conjugates in GBM tumors (IVIS imaging); assay type: in vivo
Experimental: Each group of animals was provided with orthotropic implants (GBM) and after tumor growth in the brain and subcutaneously implanted GBM Xenografts. Polymer conjugated MAT 210, TAT 230 or DAT 220 derivatives were injected subcutaneously with P-bi-TAT-Cy5 and other polymer conjugated TAT 230 or DAT 220 derivative-Cy5. IVIS imaging was performed immediately after injection and at 30 min, 1 h, 2 h, 3 h, 4 h to detect the fluorescence intensity at the orthotropic brain xenograft tumor site (brain) and subcutaneous xenografts tumors. […] The graphs depicted in FIGS. 34 and 35 describe the kinetics of the thyrointegrin antagonist derivatives' uptake into GBM tumors in the brain or subcutaneously implanted tumors. FIGS. 34-35 describe the effects of the polymer conjugated thyrointegrin antagonist derivatives containing MAT 210, DAT 220 and TAT 230 over time including bifunctional embodiments thereof.

U87-luc cells = assay: GBM (U87-luc) xenografts, orthotopic and subcutaneous, 7 days treatment; assay type: in vivo, mouse; settings: 1, 3 and 10 mg/kg, SC daily for 7 days
Experimental: Glioblastoma cells: U87-luc cells implanted orthotopically at 0.2×10^6 cell in 20 ul, in Matrigel and subcutaneously xenografted at 2×10^6 cells/implant with Matrigel in athymic female mice. Animals treated with polymers conjugated thyrointegrin antagonists, including derivatives of P-DAT 720, P-TAT 730 and bifunctional derivatives thereof for 7 days after 1 day post-implant and IVIS imaging of the brain tumor and subcutaneous tumor xenograft. […] FIGS. 38-40 depict the measurable dose-dependent effects of p-bi-TAT 1030 on brain GBM tumor and subcutaneous GBM tumor including the effect on luminescent signals of GBM in the brain, average tumor weight and bioluminescent intensity.

[3] = Safety studies, C57BL6 mice, 14 days; assay type: in vivo
Experimental: Preclinical toxicology of a representative of the polymer conjugated thyrointegrin antagonist antiangiogenic agent of P-bi-TAT was pursued in 5-to-6 week-old C57BL6 mice, treated for 14 days with varying doses of P-bi-TAT. The treatment groups were control (vehicle), 1 mg/kg, 3 mg/kg, 10 mg/kg, 30 mg/kg, 100 mg/kg and 330 mg/kg P-bi-TAT, administered daily s.c. for 14 days. Each treatment group consisted of 5 male and 5 female animals, and animal weights were measured twice weekly. Mice terminated after 14 days and blood samples collected from the retro-orbital venous plexus. Blood samples centrifuged, and harvested plasma was stored at −80° C. until subjected to analyses described below.
Liver function was estimated by measurement in stored plasma of alanine transaminase (ALT) and aspartate transaminase (AST) activities (Colorimetric kit, Biovision, Inc., Milpitas, Calif.) the data for which is shown in FIG. 44. Cardiac troponin I (cTnI) levels in plasma were measured by an ELISA method (Life Diagnostics, West Chester, Pa.) as an index of myocardial damage (FIG. 44). It is a troponin found exclusively in the heart and not in other forms of muscle. Kidney function estimated by measurement of plasma creatinine concentration (Colorimetric kit, Biovision, Inc.) (FIG. 44). Satisfactory standard curves were constructed for each of the liver and kidney assays. […]

[4] = test system: Matrigel growth factors implant-mediated angiogenesis; assay: Mouse Matrigel-growth factors implant angiogenesis model (hemoglobin); assay type: in vivo; settings: 10, 30, 100 μg/10 μl; day 14
Experimental: The mouse Matrigel model was performed in accordance with institutional guidelines for animal safety and welfare. Female mice C56/BL aged 5-6 weeks and body weights of 20 g were purchased from Taconic Farms (Hudson, N.Y., USA). The animals were maintained under specific pathogen-free conditions and housed 4 animals per cage, under controlled conditions of temperature (20-24° C.) and humidity (60-70%) and a 12 h light/dark cycle. The in vivo study carried out in the animal facility of the Veterans Affairs (VA) Medical Center, Albany, N.Y., and the experimental protocol approved by the VAIACUC. Mice were acclimated for 5 d prior to the start of experiments. […]
Polymer Conjugated DAT, TAT or MAT derivatives were tested at three different doses (10, 30, 100 μg/10 μl). […] At day 14-post plug implant, all animals were sacrificed and hemoglobin contents were quantitated using spectrophotometry. […]
Matrigel plug hemoglobin (Hb) content was indexed as a measure of new vascularity formation. […] A volume of 50 μl of supernatant were mixed with 50 μl of Drabkin's reagent and allowed to sit at room temperature for 15-30 min, after which 100 μl was placed in a 96-well plate and absorbance was measured at 540 nm with a Microplate Manager ELISA reader. The Hb concentration was expressed as mg/ml based on comparison with a standard curve.

[5] = test system: pancreatic cancer SUIT 2 xenografts; assay: Pancreatic cancer SUIT 2 xenografts, with or without radiation; assay type: in vivo, mouse; settings: for Decrease in tumor size, combination with radiation / Decrease in cell viability, combination with radiation / Increase of necrosis, combination with radiation: vs. non-irradiated control; for Tumor weight reduction after 20 days / Increase in % cell necrosis in tissue sections / Percent reduction in tumor cell viability: no radiation
Experimental: Female NCr mice (Taconic Farms, Hudson, N.Y.) for in vivo studies obtained at 5-6 weeks of age (20 gm body weight) and maintained under specific pathogen-free conditions, and food and water provided ad libitum. The animals allowed to acclimate for 5 days. Cultured human SUIT 2 cells were harvested and implanted subcutaneously (s.c.) in each flank of the mice. Inocula comprising 100 μL, 50% Matrigel °, and containing 2×10^6 tumor cells was prepared. Tumors were grown for 7 days, at which time the animals were randomized into control and P-bi-TAT groups (6 animals/group, 12-carcinoma grafts/group). Starting on day 0, drug was administered at 3 or 10 mg of P-bi-TAT/kg body weight, daily for 20 days (to experimental day 19). Control animals received vehicle (PBS) daily. Animals were sacrificed on experimental day 20. Tumors were harvested and the weight of the tumors were measured. Tumors were formalin-fixed, imbedded in paraffin and sliced.
Effectiveness of radiation therapy, alone and in conjunction with P-bi-TAT was also assessed. The Radiation treatment was one Gy administered to right flank xenografts on days 10 and 17. Geometry of flank exposure excluded radiation exposure to the left flank of study animals, so that the left flank served as a control in the radiation studies.

O,O′-Bis({4-[3,5-diiodo-4-(1-methylen-1,2,3-triazol-4-ylmethoxy)phenoxy]-3,5-diiodophenyl}acetic acid) polyethylene glycol [P-bi-TAT]
Reduction in tumor cell viability (histological score) ([1]; 3 mg P-bi-TAT/kg s.c. daily for 21 days): 62% | Reductions in cell viability achieved by day 21 ([1]; 3 mg/kg and 10 mg/kg dosages, histologic evaluation): 60-70% | Reduction in tumor cell viability (histological score) ([1]; 10 mg P-bi-TAT/kg s.c. daily for 21 days): 72% | Cy5 signal in the brain over time ([2]; subcutaneous injection, IVIS up to 4 hours): seen in the brain at 30 minutes and sustained for the 4 hours of monitoring | Cy5 signal in brain GBM tumor versus subcutaneous GBM tumor xenografts ([2]; tumors removed after 4 hours): comparable | Suppression of tumor and cell viability in brain and subcutaneous GBM tumor (U87-luc cells): dose dependent suppression of the tumor | Body weights ([3]; 1-330 mg/kg daily s.c. for 14 days): unaffected | Liver, heart or kidney toxicity (ALT, AST, cTnI, creatinine in plasma) ([3]; male and female mice, 2 weeks, up to 100-fold the efficacious dose (3-10 mg/kg)): no evidence of liver, heart or kidney toxicity | Anti-angiogenic effect (Matrigel plug hemoglobin levels) [4]: dose dependent response on angiogenesis | Decrease in tumor size, combination with radiation ([5]; 3 mg P-bi-TAT/kg plus one Gy radiation): 71% | Tumor weight reduction after 20 days ([5]; 3 mg/kg daily): 55% | Decrease in cell viability, combination with radiation ([5]; 3 mg/kg plus 1 Gy radiation): 54% | Increase of necrosis, combination with radiation ([5]; 3 mg/kg plus 1 Gy radiation): 65% | Increase in % cell necrosis in tissue sections ([5]; 3 mg/kg): not significant | Percent reduction in tumor cell viability ([5]; 3 mg/kg): insignificant | Decrease in tumor size, combination with radiation ([5]; 10 mg P-bi-TAT/kg plus one Gy radiation): 77% | Tumor weight reduction after 20 days ([5]; 10 mg/kg daily): 65% | Decrease in cell viability, combination with radiation ([5]; 10 mg/kg plus 1 Gy radiation): 68% | Increase of necrosis, combination with radiation ([5]; 10 mg/kg plus 1 Gy radiation): 70% | Increase in % cell necrosis in tissue sections ([5]; 10 mg/kg): more than a doubling | Percent reduction in tumor cell viability ([5]; 10 mg/kg): 43%
